Measured values reported in patent US8278304B2, “Substituted 4-hydroxypyrimidine-5-carboxamides” (Merck Sharp & Dohme Corp., priority 2008, dated 2012).
Counter-ions that a name gives are not always drawn.

Molecular target: T1, PHD2 (Homo sapiens, UniProt Q9GZT9)
T1 construct: FLAG-tagged full length PHD2 expressed in and purified from baculovirus-infected Sf9 cells; FLAG; made in house; host or cells: baculovirus-infected Sf9 cells
Test: PHD2 / HIF-1α peptide hydroxylation assay, time resolved fluorescence (VHL complex detection)
Format: biochemical
Conditions: FLAG-tagged full length PHD2; 0.2 μM 2-oxoglutarate, 0.5 μM HIF-1α peptide; read-out: PHD2 Activity (PHD2 binding activity expressed as IC50 (nM))
Description: To each well of a 96-well plate was added 1 μL of test compound in DMSO and 20 μl of assay buffer (50 mM Tris pH 7.4/0.01% Tween-20/0.1 mg/ml bovine serum albumin/10 μM ferrous sulfate/1 mM sodium ascorbate/20 μg/ml catalase) containing 0.15 μg/ml FLAG-tagged full length PHD2 expressed in and purified from baculovirus-infected Sf9 cells. After a 30 min preincubation at room temperature, the enzymatic reactions were initiated by the addition of 4 μL of substrates (final concentrations of 0.2 μM 2-oxoglutarate and 0.5 μM HIF-1α peptide biotinyl-[…]).

T1 sequence (Q9GZT9 whole entry): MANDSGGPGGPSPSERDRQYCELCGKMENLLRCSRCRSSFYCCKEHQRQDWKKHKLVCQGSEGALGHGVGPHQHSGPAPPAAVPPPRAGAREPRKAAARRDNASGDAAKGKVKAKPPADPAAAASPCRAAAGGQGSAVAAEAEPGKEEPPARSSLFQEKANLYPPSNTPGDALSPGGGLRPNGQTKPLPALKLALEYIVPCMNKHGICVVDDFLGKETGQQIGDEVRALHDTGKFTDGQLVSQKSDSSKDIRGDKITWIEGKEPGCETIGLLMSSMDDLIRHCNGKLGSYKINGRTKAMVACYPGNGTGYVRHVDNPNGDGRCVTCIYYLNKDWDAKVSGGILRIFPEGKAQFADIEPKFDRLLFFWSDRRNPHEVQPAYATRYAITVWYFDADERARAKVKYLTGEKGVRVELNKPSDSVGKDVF

Structure (SMILES)	IC50 [nM]
O=C(NCc1ccc(-c2ccccc2Cl)cc1)c1cnc(-n2cccn2)nc1O [Example 62, N-[(2′-chlorobiphenyl-4-yl)methyl]-4-hydroxy-2-(1H-pyrazol-1-yl)pyrimidine-5-carboxamide]	≤ 10
O=C(NCc1ccc(-c2ccc(F)cc2)cc1)c1cnc(-n2cccn2)nc1O [Example 63, N-[(4′-fluorobiphenyl-4-yl)methyl]-4-hydroxy-2-(1H-pyrazol-1-yl)pyrimidine-5-carboxamide]	≤ 10
O=C(NCc1cnc(Cl)cn1)c1cnc(-n2cccn2)nc1O [Example 64, N-[(5-chloropyrazin-2-yl)methyl]-4-hydroxy-2-(1H-pyrazol-1-yl)pyrimidine-5-carboxamide]	10 to 100
O=C(NCc1cc(C(F)(F)F)cc(C(F)(F)F)c1)c1cnc(-n2cccn2)nc1O [Example 65, N-[3,5-bis(trifluoromethyl)benzyl]-4-hydroxy-2-(1H-pyrazol-1-yl)pyrimidine-5-carboxamide]	100 to 1000
Cc1cnc(CNC(=O)c2cnc(-n3cccn3)nc2O)cn1 [Example 66, 4-Hydroxy-N-[(5-methylpyrazin-2-yl)methyl]-2-(1H-pyrazol-1-yl)pyrimidine-5-carboxamide]	100 to 1000
O=C(NC(Cc1ccccc1)c1ccccc1)c1cnc(-n2cccn2)nc1O (stereo not drawn) [Example 67, N-(1,2-diphenylethyl)-4-hydroxy-2-(1H-pyrazol-1-yl)pyrimidine-5-carboxamide]	≤ 10
O=C(NCc1ccc(C(F)(F)F)cc1F)c1cnc(-n2cccn2)nc1O [Example 68, N-[2-fluoro-4-(trifluoromethyl)benzyl]-4-hydroxy-2-(1H-pyrazol-1-yl)pyrimidine-5-carboxamide]	10 to 100
CC(C)(NC(=O)c1cnc(-n2cccn2)nc1O)c1ccc(F)cc1 [Example 73, N-[1-(4-fluorophenyl)-1-methylethyl]-4-hydroxy-2-(1H-pyrazol-1-yl)pyrimidine-5-carboxamide]	≤ 10
CC(C)(NC(=O)c1cnc(-n2cccn2)nc1O)c1ccc(C(F)(F)F)nc1 [Example 74, 4-Hydroxy-N-{1-methyl-1-[6-(trifluoromethyl)pyridin-3-yl]ethyl}-2-(1H-pyrazol-1-yl)pyrimidine-5-carboxamide]	≤ 10
CCN(NC(=O)c1cnc(-n2cccn2)nc1O)c1ccccc1 [Example 76, N′-Ethyl-4-hydroxy-N′-phenyl-2-(1H-pyrazol-1-yl)pyrimidine-5-carbohydrazide trifluoroacetate (salt)]	10 to 100
Cc1ccc(CNC(=O)c2cnc(-n3cccn3)nc2O)cc1 [Example 77, 4-Hydroxy-N-(4-methylbenzyl)-2-(1H-pyrazol-1-yl)pyrimidine-5-carboxamide]	10 to 100
Cc1ccc([C@@H](C)NC(=O)c2cnc(-n3cccn3)nc2O)cc1 [Example 78, 4-Hydroxy-N-[(1R)-1-(4-methylphenyl)ethyl]-2-(1H-pyrazol-1-yl)pyrimidine-5-carboxamide]	10 to 100
Cc1ccc([C@H](C)NC(=O)c2cnc(-n3cccn3)nc2O)cc1 [Example 79, 4-Hydroxy-N-[(1S)-1-(4-methylphenyl)ethyl]-2-(1H-pyrazol-1-yl)pyrimidine-5-carboxamide]	≤ 10
O=C(NN1CCCCC1)c1cnc(-n2cccn2)nc1O [Example 80, 4-hydroxy-N-piperidin-1-yl-2-(1H-pyrazol-1-yl)pyrimidine-5-carboxamide trifluoroacetate (salt)]	10 to 100
O=C(c1cnc(-n2cccn2)nc1O)N1CCCCC1 [Example 81, 5-(Piperidin-1-ylcarbonyl)-2-(1H-pyrazol-1-yl)pyrimidin-4-ol]	1000 to 10000
CC(C)(C)C1CCC(NC(=O)c2cnc(-n3cccn3)nc2O)CC1 (stereo not drawn) [Example 82, N-(4-tert-butylcyclohexyl)-4-hydroxy-2-(1H-pyrazol-1-yl)pyrimidine-5-carboxamide]	10 to 100
O=C(N[C@@H]1CONC1=O)c1cnc(-n2cccn2)nc1O [Example 83, 4-Hydroxy-N-[(4R)-3-oxoisoxazolidin-4-yl]-2-(1H-pyrazol-1-yl)pyrimidine-5-carboxamide]	100 to 1000
C[C@@H](NC(=O)c1cnc(-n2cccn2)nc1O)C1CCCCC1 [Example 84, N-[(1R)-1-cyclohexylethyl]-4-hydroxy-2-(1H-pyrazol-1-yl)pyrimidine-5-carboxamide]	10 to 100
C[C@H](NC(=O)c1cnc(-n2cccn2)nc1O)C1CCCCC1 [Example 85, N-[(1S)-1-cyclohexylethyl]-4-hydroxy-2-(1H-pyrazol-1-yl)pyrimidine-5-carboxamide]	10 to 100
CC(NC(=O)c1cnc(-n2cccn2)nc1O)c1ccncc1 (stereo not drawn) [Example 86, 4-hydroxy-2-(1H-pyrazol-1-yl)-N-(1-pyridin-4-ylethyl)pyrimidine-5-carboxamide trifluoroacetate (salt)]	≤ 10

Structure (SMILES)	IC50 [nM]
O=C(NC1(c2ccccc2)CC1)c1cnc(-n2cccn2)nc1O [Example 87, 4-Hydroxy-N-(1-phenylcyclopropyl)-2-(1H-pyrazol-1-yl)pyrimidine-5-carboxamide]	≤ 10
CC(C)(NC(=O)c1cnc(-n2cccn2)nc1O)c1ccc(F)c(F)c1 [Example 89, N-[1-(3,4-difluorophenyl)-1-methylethyl]-4-hydroxy-2-(1H-pyrazol-1-yl)pyrimidine-5-carboxamide]	≤ 10
CC(NC(=O)c1cnc(-n2cccn2)nc1O)[C@]12C[C@H]3C[C@H](C[C@H](C3)C1)C2 (stereo partly drawn) [Example 90, N-{(1R)-1-[(3S,5S,7S)-1-adamantyl]ethyl}-4-hydroxy-2-(1H-pyrazol-1-yl)pyrimidine-5-carboxamide]	10 to 100
C[C@H](NC(=O)c1cnc(-n2cccn2)nc1O)c1ccc(Br)cc1 [Example 91, N-[(1S)-1-(4-bromophenyl)ethyl]-4-hydroxy-2-(1H-pyrazol-1-yl)pyrimidine-5-carboxamide]	≤ 10
CC(C)(NC(=O)c1cnc(-n2cccn2)nc1O)c1ccc(Br)cc1 [Example 92, N-[1-(4-bromophenyl)-1-methylethyl]-4-hydroxy-2-(1H-pyrazol-1-yl)pyrimidine-5-carboxamide]	≤ 10
O=C(NCc1ccc(Oc2ccccc2)cc1)c1cnc(-n2cccn2)nc1O [Example 93, 4-hydroxy-N-(4-phenoxybenzyl)-2-(1H-pyrazol-1-yl)pyrimidine-5-carboxamide]	≤ 10
O=C(NC1(c2ccccc2)CCCCC1)c1cnc(-n2cccn2)nc1O [Example 94, 4-hydroxy-N-(1-phenylcyclohexyl)-2-(1H-pyrazol-1-yl)pyrimidine-5-carboxamide]	≤ 10
O=C(c1ccccc1)c1ccc(CNC(=O)c2cnc(-n3cccn3)nc2O)cc1 [Example 95, N-(4-benzoylbenzyl)-4-hydroxy-2-(1H-pyrazol-1-yl)pyrimidine-5-carboxamide]	≤ 10
Cc1ccc(Oc2ccc(CNC(=O)c3cnc(-n4cccn4)nc3O)cc2)cc1 [Example 97, 4-hydroxy-N-[4-(4-methylphenoxy)benzyl]-2-(1H-pyrazol-1-yl)pyrimidine-5-carboxamide]	≤ 10
CCC(CC)(NC(=O)c1cnc(-n2cccn2)nc1O)c1ccccc1 [Example 98, N-(1-ethyl-1-phenylpropyl)-4-hydroxy-2-(1H-pyrazol-1-yl)pyrimidine-5-carboxamide]	≤ 10
O=C(NCc1ccc(Oc2ccc(F)cc2)cc1)c1cnc(-n2cccn2)nc1O [Example 99, N-[4-(4-fluorophenoxy)benzyl]-4-hydroxy-2-(1H-pyrazol-1-yl)pyrimidine-5-carboxamide]	≤ 10
Cc1ccccc1Oc1ccc(CNC(=O)c2cnc(-n3cccn3)nc2O)cc1 [Example 100, 4-hydroxy-N-[4-(2-methylphenoxy)benzyl]-2-(1H-pyrazol-1-yl)pyrimidine-5-carboxamide]	≤ 10
O=C(NCc1ccc2c(c1)CCO2)c1cnc(-n2cccn2)nc1O [Example 101, N-(2,3-dihydro-1-benzofuran-5-ylmethyl)-4-hydroxy-2-(1H-pyrazol-1-yl)pyrimidine-5-carboxamide]	≤ 10
O=C(NC1c2ccccc2-c2ccccc21)c1cnc(-n2cccn2)nc1O [Example 102, N-9H-fluoren-9-yl-4-hydroxy-2-(1H-pyrazol-1-yl)pyrimidine-5-carboxamide]	≤ 10
COC(=O)c1ccc(CNC(=O)c2cnc(-n3cccn3)nc2O)cc1 [Example 103, methyl 4-[({[4-hydroxy-2-(1H-pyrazol-1-yl)pyrimidin-5-yl]carbonyl}amino)methyl]benzoate]	10 to 100
O=C(O)CNC(=O)c1cnc(-n2cccn2)nc1O [Example 104, N-{[4-hydroxy-2-(1H-pyrazol-1-yl)pyrimidin-5-yl]carbonyl}glycine]	1000 to 10000
O=C(NCc1ccc(-c2ccccc2)nc1)c1cnc(-n2cccn2)nc1O [Example 105, 4-Hydroxy-N-[(6-phenylpyridin-3-yl)methyl]-2-(1H-pyrazol-1-yl)pyrimidine-5-carboxamide]	≤ 10
O=C(NCc1ccc(-c2ccccc2F)nc1)c1cnc(-n2cccn2)nc1O [Example 106, N-{[6-(2-fluorophenyl)pyridin-3-yl]methyl}-4-hydroxy-2-(1H-pyrazol-1-yl)pyrimidine-5-carboxamide]	≤ 10
O=C(NCc1ccc(-c2cccc(F)c2)nc1)c1cnc(-n2cccn2)nc1O [Example 107, N-{[6-(3-fluorophenyl)pyridin-3-yl]methyl}-4-hydroxy-2-(1H-pyrazol-1-yl)pyrimidine-5-carboxamide trifluoroacetate (salt)]	≤ 10
